Experimental findings from publication PMC9048847 (RSC Advances, 2020) are described below.

This experiment deals with human thrombin (Homo sapiens, UniProt P00734). As to the kind of experiment: Fluorescence-based thrombin inhibition assay. Type of experiment: biochemical.

The IC50 is the midpoint of a concentration-inhibition curve. A low value points to higher potency. In the case of `O=C(/C=C/c1ccc(O[C@@H]2O[C@H](CO)[C@@H](O)[C@H](O)[C@H]2O)cc1)c1ccc(O)cc1O` [compound 1, isoliquiritin], the “Anti-thrombin activity (in words)” value is recorded as “moderate” and inhibition was half-maximal at 38.8 ± 4.04 µM (IC50).

As to `O=C(/C=C/c1ccc(O)cc1)c1ccc(O)cc1O` [compound 2, isoliquiritigenin], the “Anti-thrombin activity (in words)” value is given as “moderate” and the concentration for half-maximal inhibition (IC50) turned out to be 17.9 ± 2.75 µM.

Turning to `COc1cc(O)ccc1/C=C/C(=O)c1ccc(O)cc1` [compound 6, echinatin], the “Anti-thrombin activity (in words)” value was “moderate” and the midpoint of inhibition, the IC50, lay at 28.5 ± 2.65 µM.

`CC(C)=CCc1cc([C@@H]2CC(=O)c3ccc(O)c(CC=C(C)C)c3O2)ccc1O` [compound 11, glabrol] came in with a half-inhibitory concentration (IC50) of more than 100 µM.

`O=C1C[C@@H](c2ccc(O[C@@H]3O[C@H](CO)[C@@H](O)[C@H](O)[C@H]3O)cc2)Oc2cc(O)ccc21` [compound 12, liquiritin] registered an IC50 of more than 100 µM.

In turn, `CC(C)=CCc1c(O)cc2oc(-c3ccc(O)cc3)c(O)c(=O)c2c1O` [compound 14, licoflavonol] had a concentration for half-maximal inhibition (IC50) of more than 100 µM.

The compound `CC(C)=CCc1cc(-c2oc3cc(O)cc(O)c3c(=O)c2O)ccc1O` [compound 15, isolicoflavonol] showed a concentration for half-maximal inhibition (IC50) of more than 100 µM.

`COc1c(CC=C(C)C)c(O)cc2oc(=O)c(-c3ccc(O)cc3O)cc12` [compound 16, glycycoumarin] gave a 50% inhibitory concentration (IC50) of more than 100 µM.

For `COc1c2c(cc3oc(=O)c4c5ccc(O)cc5oc4c13)OC(C)(C)CC2` [compound 17, isoglycyrol], the IC50 was more than 100 µM.

`CC1(C)[C@@H](O)CC[C@]2(C)[C@H]3C(=O)C=C4[C@@H]5C[C@@](C)(C(=O)O)CC[C@]5(C)CC[C@@]4(C)[C@]3(C)CC[C@@H]12` [compound 18, glycyrrhetinic acid] registered an IC50 of more than 100 µM.

As to `CC1(C)[C@@H](O[C@H]2O[C@H](C(=O)O)[C@@H](O)[C@H](O)[C@H]2O[C@@H]2O[C@H](C(=O)O)[C@@H](O)[C@H](O)[C@H]2O)CC[C@]2(C)[C@H]3C(=O)C=C4[C@@H]5C[C@@](C)(C(=O)O)CC[C@]5(C)CC[C@@]4(C)[C@]3(C)CC[C@@H]12` [compound 19, glycyrrhizic acid], the half-maximal inhibitory concentration (IC50) was more than 100 µM.

`CC1(C)C=Cc2c(ccc3c2OC[C@@H](c2ccc(O)cc2O)C3)O1` [compound 20, glabridin] returned a concentration for half-maximal inhibition (IC50) of more than 100 µM.

Regarding `COc1cc(O)c2c(=O)cc(-c3ccc(OC)c(-c4c(O)cc(O)c5c(=O)cc(-c6ccc(O)cc6)oc45)c3)oc2c1` [compound 22, Ginkgetin, reference compound], half-maximal inhibition (IC50) was put at 8.05 ± 1.5 µM.

`O=c1cc(-c2ccccc2)oc2cc(O)c(O)c(O)c12` [compound 23, Baicalein, reference compound] gave a 50% inhibitory concentration (IC50) of 36.1 ± 4.68 µM.

Consider isoliquiritin apioside [compound 8], for which the “Anti-thrombin activity (in words)” value was “moderate”.
